For data set [1] the following is noted: for mass density: 298.15 K, 101.33 kPa.
Data set [2] is described as follows: Molar enthalpy of transition or fusion. To be noted: Crystal 1; DSC.

± gives the expanded uncertainty stated by the source.

Consider `O=C(NC[C@H]1CN(c2ccc(N3CCOCC3=O)cc2)C(=O)O1)c1ccc(Cl)s1` [Rivaroxaban], for which the mass density in data set [1] (Crystal 1, Pycnometric method) is 1517.1 ± 2.1 kg/m3; in data set [1] (Crystal 1, X-ray diffraction), 1516.7 ± 7.4 kg/m3; in data set [1] (Metastable crystal, Pycnometric method), 1355.3 ± 2.1 kg/m3; in data set [1] (Metastable crystal, X-ray diffraction) it was 1362.9 ± 25 kg/m3. Moreover, the Triple point temperature in data set [1] (Crystal 1, DSC) came to 501.41 ± 7.8 K. For the same compound, the “Molar enthalpy of transition or fusion” value in data set [2] stood at 11.2 ± 0.502 kcal/mol.

The term mass density denotes the mass of a sample divided by its volume.

Values taken from the NIST ThermoML archive (doi:10.1016/j.jct.2016.09.036).
